This assay in a line: Odor description on paper blotter. Particulars: 1% solution in EtOH on paper blotter, 24 h.
As to `C=CCC(Oc1ccc(C=O)cc1OCC)C(=O)OCC` (stereo not shown) [Example 61, ethyl 2-(2-ethoxy-4-formylphenoxy)pent-4-enoate], the Odor description result was “sweet powdery gourmand (vanilla, coffee) creamy (vanilla, milky)”.

`C=CCC(C)(C)Oc1ccc(C=O)cc1OCC` [Example 28, 3-ethoxy-4-((2-methylpent-4-en-2-yl)oxy)benzaldehyde]: the Odor description entry is on record as “powdery (vanilla)”.

With `COC(=O)c1c(C)cc(OCCC=C(C)C)c(C)c1O` [Example 62, methyl 2-hydroxy-3,6-dimethyl-4-((4-methylpent-3-en-1-yl)oxy)benzoate], the Odor description result is given as “mossy (evernyl)”.

With “(Z)-2-ethoxy-1-(hex-3-en-1-yloxy)-4-methylbenzene and (Z)-1-ethoxy-2-(hex-3-en-1-yloxy)-4-methylbenzene [Example 35]”, the Odor description entry is on record as “spicy, eugenol, clove, phenolic, vanilla, medicinal”.

Turning to `COc1cc(C=O)ccc1OCCC=C(C)C` [Example 37, 3-methoxy-4-((4-methylpent-3-en-1-yl)oxy)benzaldehyde], the Odor description entry was “powdery, vanilla, creamy”.

With `CC/C=C\CCOc1cc(C)cc(OC)c1` [Example 41, (Z)-1-(hex-3-en-1-yloxy)-3-methoxy-5-methylbenzene], the Odor description result is on record as “green, bell pepper”.

For the compound `CC(C)=CCCOc1ccc(C)cc1` [Example 44, 1-methyl-4-((4-methylpent-3-en-1-yl)oxy)benzene], the Odor description result is recorded as “animalic, leathery, phenolic, paracresol”.

On to `CCC=CCCOc1cc(C)ccc1C(C)C` [Example 30, 2-(hex-3-en-1-yloxy)-1-isopropyl-4-methylbenzene], for which the Odor description entry is recorded as “aromatic, thymol, menthol”.

With `C=CCCOc1cc(C)c(C(=O)OC)c(O)c1C` [Example 14, methyl 4-(but-3-en-1-yloxy)-2-hydroxy-3,6-dimethylbenzoate], the Odor description entry was “slightly mossy”.

Consider `CC/C=C\CCOc1ccccc1C(=O)CC` [Example 46, (Z)-1-(2-(hex-3-en-1-yloxy)phenyl)propan-1-one], for which the Odor description result is “green, wintergreen”.

Turning to `CC=CCCOc1cc(C)c(C(=O)OC)c(O)c1C` [Example 63, methyl 2-hydroxy-3,6-dimethyl-4-(pent-3-en-1-yloxy)benzoate], the Odor description entry is “mossy, evernyl, dry powdery”.

`CCc1ccc(OCCC=C(C)C)cc1` [Example 42, 1-ethyl-4-((4-methylpent-3-en-1-yl)oxy)benzene]: the Odor description result is recorded as “animalic, leathery, phenolic, paracresol”.

For the compound `CCOc1cc(C=O)ccc1OCCC=CCC(C)C` [Example 31, 3-ethoxy-4-((6-methylhept-3-en-1-yl)oxy)benzaldehyde], the Odor description entry is on record as “powdery, vanilla, green, hazelnut, chocolate”.

With `CC/C=C\CCOc1ccc(C=NOC)cc1OCC` [Example 47, 3-ethoxy-4-(((Z)-hex-3-en-1-yl)oxy)benzaldehyde O-methyl oxime], the Odor description result is listed as “vanilla (sweet, gourmand, carnation floral, chestnut cream)”.

In the case of `CC/C=C\CCOc1ccccc1OCC` [Example 39, (Z)-1-ethoxy-2-(hex-3-en-1-yloxy)benzene], the Odor description result is listed as “medicinal, phenolic, vanilla”.

As for `C=CCC(CC=C)Oc1ccc(C=O)cc1OCC` [Example 22, 3-ethoxy-4-(hepta-1,6-dien-4-yloxy)benzaldehyde], the Odor description entry is “powdery (creamy, vanilla)”.

As to `CC/C=C/CCOc1ccc(C=O)cc1OCC` [Example 2, (E)-3-ethoxy-4-(hex-3-en-1-yloxy)benzaldehyde], the Odor description entry was “powdery (vanilla, creamy) slightly fruity (raspberry, strawberry)”.

In the case of `C=C(C)CCOc1ccc(CCC(C)=O)cc1` [Example 16, 4-(4-((3-methylbut-3-en-1-yl)oxy)phenyl)butan-2-one], the Odor description entry is “fruity (raspberry) sweet”.

`CC/C=C\CC(C)Oc1ccc(CCC(C)=O)cc1` (stereo not shown) [Example 5, (Z)-4-(4-(hept-4-en-2-yloxy)phenyl)butan-2-one]: the Odor description result is listed as “raspberry (fruity, ripe, fresh)”.

(Values after patent publication US20250243427A1, “PRECURSORS OF PHENOLIC FRAGRANT COMPOUNDS” (GIVAUDAN SA, priority 2021, published 2025).)
